Series [1] is described as follows: Hygroscopicity and storage stability of the crystalline form (stated in words). The format is physicochemical.
Series [2] in a line: Particle size distribution by laser diffraction (Sympatec Helos, 1 bar dispersive pressure). The settings on record: isolated crystalline product of the example; hydrochloride. The format is physicochemical. The text has this:
The term “Particle Size Distribution (P.S.D.)” means the cumulative volume size distribution of equivalent spherical diameters as determined by laser diffraction at 1 bar dispersive pressure in a Sympatec Helos equipment. “Mean particle size distribution, i.e., d(0.5)” correspondingly, means the median of said particle size distribution.

Molecules are shown by their SMILES.

On to `C#Cc1cccc(Nc2ncnc3cc(OCCOC)c(OCCOC)cc23)c1` [crystalline erlotinib hydrate, erlotinib hydrate], for which, in series [1], the Hygroscopicity entry is on record as “non-hygroscopic” and the Storage stability result is “storage stable over the time”. In the case of `C#Cc1cccc(Nc2ncnc3cc(OCCOC)c(OCCOC)cc23)c1.Cl` [Reference Example 2, N-(3-ethynylphenyl)-6,7-bis(2-methoxyethoxy)-4-quinazolinamine hydrochloride], the “90 volume-% of the particles (D90)” value in series [2] is given as 7.74 μm.

With `C#Cc1cccc(Nc2ncnc3cc(OCCOC)c(OCCOC)cc23)c1.Cl` [Reference Example 1, N-(3-ethynylphenyl)-6,7-bis(2-methoxyethoxy)-4-quinazolinamine hydrochloride], in series [2], the “90 volume-% of the particles (D90)” value stood at 4.53 μm and the “Mean particle size (D50)” value is on record as 3.42 μm. In the case of `C#Cc1cccc(Nc2ncnc3cc(OCCOC)c(OCCOC)cc23)c1.Cl` [Example 6, N-(3-ethynylphenyl)-6,7-bis(2-methoxyethoxy)-4-quinazolinamine hydrochloride], in series [2], the “90 volume-% of the particles (D90)” value came to 18.96 μm and the “Mean particle size (D50)” value was 5.48 μm.

Consider `C#Cc1cccc(Nc2ncnc3cc(OCCOC)c(OCCOC)cc23)c1.Cl` [N-(3-ethynylphenyl)-6,7-bis(2-methoxyethoxy)-4-quinazolinamine hydrochloride], for which the Storage stability entry in series [1] is recorded as “stable over the time”. Turning to `C#Cc1cccc(Nc2ncnc3cc(OCCOC)c(OCCOC)cc23)c1.Cl` [Reference Example 5, N-(3-ethynylphenyl)-6,7-bis(2-methoxyethoxy)-4-quinazolinamine hydrochloride], in series [2], the “90 volume-% of the particles (D90)” value worked out at 4.61 μm and the “Mean particle size (D50)” value came out at 3.50 μm.

For the origin of these results see patent US8669265B2, “Hydrated form of erlotinib free base and a process for preparation of erlotinib hydrochloride polymorph form a substantially free of polymorph form B” (Hetero Research Foundation, priority 2007, dated 2014).
